Structures are written as SMILES. Where only a bound is given, the exact number is not on record here.

The target in the first assay is T1, recombinant human Syk (GST-hSyk fusion protein) (Homo sapiens, UniProt P43405).
T1 construct: purchased Carna Biosciences 08-176
Put plainly: Homogeneous Time-Resolved Fluorescence (HTRF) assay for the recombinant human Syk enzyme. It is filed as biochemical. Particulars: 10-dose titration, 25 μM ATP; read-out: rhSYK IC50. In short, it runs like this: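 IC50 came from a four-parameter fit over ten doses, 10 μM to 0.508 nM, with HTRF read-out (Eu-anti-pTyr antibody, SA-APC, EDTA stop, 30 min). The enzyme, 5 pM GST-hSyk, met compound for 10 min, then phosphorylated 250 nM biotin-peptide with 25 μM ATP and 5 mM Mg for 45 min at room temperature, pH 7.5.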
(In TR-FRET formats the signal depends on donor and acceptor labels being close together.)
Regarding `Cc1cc(Nc2nccc(C(F)(F)F)n2)cc(-c2cnn3ccccc23)c1` [Example 1.1, N-(3-methyl-5-(pyrazolo[1,5-a]pyridin-3-yl)phenyl)-4-(trifluoromethyl)pyrimidin-2-amine], the IC50 was 65.8 nM.

Still in this assay, the particulars now being: IC50 class; 10-dose titration, 25 μM ATP; read-out: rhSYK Activity.
`Cc1cc(Nc2nccc(C(F)F)n2)cc(-c2cnn(C(C[C@H](C)O)[C@@H](C)O)c2)c1` (stereo in doubt) [Example 2.49, 3-[4-(3-{[4-(difluoromethyl)pyrimidin-2-yl]amino}-5-methylphenyl)-1H-pyrazol-1-yl]hexane-2,5-diol]: the IC50 was ≤ 100 nM. For the compound `Cc1cc(Nc2nccc(C(F)F)n2)cc(-c2cnn(C(C[C@@H](C)O)[C@H](C)O)c2)c1` (stereo in doubt) [Example 2.50, 3-[4-(3-{[4-(difluoromethyl)pyrimidin-2-yl]amino}-5-methylphenyl)-1H-pyrazol-1-yl]hexane-2,5-diol], the IC50 was ≤ 100 nM. The same measure, in the same setting: in the case of `Cc1cc(Nc2nccc(C(F)F)n2)cc(-c2cnn(C(C[C@H](C)O)[C@H](C)O)c2)c1` (stereo in doubt) [Example 2.51, 3-[4-(3-{[4-(difluoromethyl)pyrimidin-2-yl]amino}-5-methylphenyl)-1H-pyrazol-1-yl]hexane-2,5-diol] it was ≤ 100 nM. Still for that read-out and setting: to `Cc1cc(Nc2nccc(C(F)F)n2)cc(-c2cnn(C(C[C@@H](C)O)[C@@H](C)O)c2)c1` (stereo in doubt) [Example 2.52, 3-[4-(3-{[4-(difluoromethyl)pyrimidin-2-yl]amino}-5-methylphenyl)-1H-pyrazol-1-yl]hexane-2,5-diol] belongs ≤ 100 nM; to `Cc1cc(Nc2nccc(C(F)F)n2)cc(-c2cnn(C(C[C@H](C)O)[C@@H](C)O)c2)c1` (stereo in doubt) [Example 2.53, 3-[4-(3-{[4-(difluoromethyl)pyrimidin-2-yl]amino}-5-methylphenyl)-1H-pyrazol-1-yl]hexane-2,5-diol], ≤ 100 nM. The same measure, in the same setting: to `Cc1cc(Nc2nccc(C(F)F)n2)cc(-c2cnn(C(C[C@@H](C)O)[C@H](C)O)c2)c1` (stereo in doubt) [Example 2.54, 3-[4-(3-{[4-(difluoromethyl)pyrimidin-2-yl]amino}-5-methylphenyl)-1H-pyrazol-1-yl]hexane-2,5-diol] belongs ≤ 100 nM; to `Cc1cc(Nc2nccc(C(F)F)n2)cc(-c2cnn(C(C[C@H](C)O)[C@H](C)O)c2)c1` (stereo in doubt) [Example 2.55, 3-[4-(3-{[4-(difluoromethyl)pyrimidin-2-yl]amino}-5-methylphenyl)-1H-pyrazol-1-yl]hexane-2,5-diol], ≤ 100 nM; to `Cc1cc(Nc2nccc(C(F)F)n2)cc(-c2cnn(C(C[C@@H](C)O)[C@@H](C)O)c2)c1` (stereo in doubt) [Example 2.56, 3-[4-(3-{[4-(difluoromethyl)pyrimidin-2-yl]amino}-5-methylphenyl)-1H-pyrazol-1-yl]hexane-2,5-diol], ≤ 100 nM. On to `Cc1cc(Nc2nccc(C(F)(F)F)n2)cc(-c2cnn(CCS(N)(=O)=O)c2)c1` [9.2], for which the IC50 was ≤ 100 nM. `Cc1cc(Nc2nccc(C(F)(F)F)n2)cc(-n2ccc(Cl)n2)c1` [19.9]: the IC50 was in the range of 100 to 1000 nM. Same read-out and setting: in the case of `Cc1cc(Nc2nccc(C(F)(F)F)n2)cc(-c2cnn3ccccc23)c1` [Example 1.1, N-(3-methyl-5-(pyrazolo[1,5-a]pyridin-3-yl)phenyl)-4-(trifluoromethyl)pyrimidin-2-amine] it was ≤ 100 nM; in that of `Cc1cc(Nc2nccc(C(F)(F)F)n2)cc(-c2cnn(CCC(=O)O)c2)c1` [Example 1.2, 3-[4-(3-methyl-5-{[4-(trifluoromethyl)-pyrirnidin-2-yl]amino}-phenyl)-1H-pyrazol-1-yl]-propanoic acid], ≤ 100 nM. Still for that read-out and setting: to `Cc1cc(Nc2nccc(C(F)(F)F)n2)cc(-c2cnn(C)c2)c1` [Example 1.3, N-[3-methyl-5-(1-methyl-1H-pyrazol-4-yl)phenyl]-4-(trifluoromethyl)-pyrimidin-2-amine] belongs ≤ 100 nM; to `Cc1cc(Nc2nccc(C(F)(F)F)n2)cc(-c2cnn(C3CCC(C(=O)OC(C)(C)C)CC3)c2)c1` (stereo not drawn) [Example 1.4, tert-butyl 4-[4-(3-methyl-5-{[4-(trifluoromethyl)-pyrimidin-2-yl]amino}-phenyl)-1H-pyrazol-1-yl]-cyclohexanecarboxylate], 1000 to 10000 nM. The same measure, in the same setting: to `Cc1cc(Nc2nccc(C(F)(F)F)n2)cc(-c2cnn(C3C=CCCC3)c2)c1` (stereo not drawn) [Example 1.5, N-[3-(1-cyclohex-2-en-1-yl-1H-pyrazol-4-yl)-5-methylphenyl]-4-(trifluoromethyl)-pyrimidin-2-amine] belongs ≤ 100 nM; to `Cc1cc(Nc2nccc(C(F)(F)F)n2)cc(-c2cn[nH]c2)c1` [Example 1.6, N-[3-methyl-5-(1H-pyrazol-4-yl)phenyl]-4-(trifluoromethyl)-pyrimidin-2-amine], ≤ 100 nM. Turning to `Cc1cc(Nc2nccc(C(F)(F)F)n2)cc(-c2cc[nH]n2)c1` [Example 1.7, N-[3-methyl-5-(1H-pyrazol-3-yl)phenyl]-4-(trifluoromethyl)pyrimidin-2-amine], the IC50 is ≤ 100 nM. The same measure, in the same setting: in the case of `Cc1cc(Nc2nccc(C(F)(F)F)n2)cc(-c2ccnn2C(C)C)c1` [Example 1.8, N-{3-methyl-5-[1-(1-methylethyl)-1H-pyrazol-5-yl]phenyl}-4-(trifluoromethyl)pyrimidin-2-amine] it was 100 to 1000 nM; in that of `Cc1cc(Nc2nccc(C(F)(F)F)n2)cc(-c2ccnn2C)c1` [Example 1.9, N-[3-methyl-5-(1-methyl-1H-pyrazol-5-yl)phenyl]-4-(trifluoromethyl)pyrimidin-2-amine], 100 to 1000 nM; in that of `Cc1cc(Nc2nccc(C(F)(F)F)n2)cc(-c2cc(C(F)(F)F)nn2C)c1` [Example 1.10, N-{3-methyl-5-[1-methyl-3-(trifluoromethyl)-1H-pyrazol-5-yl]phenyl}-4-(trifluoromethyl)pyrimidin-2-amine], 1000 to 10000 nM. Still for that read-out and setting: in the case of `Cc1cc(Nc2cc(C(F)(F)F)ccn2)nc(-c2cnn(C(=O)OC(C)(C)C)c2)c1` [Example 1.11, tert-butyl 4-(4-methyl-6-{[4-(trifluoromethyl)-pyridin-2-yl]amino}-pyridin-2-yl)-1H-pyrazole-1-carboxylate] it was ≤ 100 nM. Consider `Cc1cc(Nc2cc(C(F)(F)F)ccn2)nc(-c2cn[nH]c2)c1` [Example 1.12, 4-methyl-6-(1H-pyrazol-4-yl)-N-[4-(trifluoromethyl)pyridin-2-yl]pyridin-2-amine], for which the IC50 was ≤ 100 nM. In the case of `Cc1cc(Nc2cc(C(F)(F)F)ccn2)nc(-c2cnn(C)c2)c1` [Example 1.13, 4-methyl-6-(1-methyl-1H-pyrazol-4-yl)-N-[4-(trifluoromethyl)pyridin-2-yl]pyridin-2-amine], the IC50 is ≤ 100 nM. On to `Cc1cc(Nc2cc(C(F)(F)F)ccn2)nc(-c2cnn(CCC(C)C)c2)c1` [Example 1.14, 4-methyl-6-[1-(3-methylbutyl)-1H-pyrazol-4-yl]-N-[4-(trifluoromethyl)pyridin-2-yl]pyridin-2-amine], for which the IC50 was ≤ 100 nM.

`Cc1cc(Nc2cc(C(F)(F)F)ccn2)nc(-c2cnn3c2CCC3)c1` [Example 1.15, 6-(5,6-dihydro-4H-pyrrolo[1,2-b]pyrazol-3-yl)-4-methyl-N-[4-(trifluoromethyl)pyridin-2-yl]pyridin-2-amine]: the IC50 is ≤ 100 nM.

On to `CCOC(=O)CCn1cc(-c2cc(C)cc(Nc3cc(C(F)(F)F)ccn3)n2)cn1` [Example 1.16, ethyl 3-[4-(4-methyl-6-{[4-(trifluoromethyl)pyridin-2-yl]amino}pyridin-2-yl)-1H-pyrazol-1-yl]propanoate], for which the IC50 was ≤ 100 nM. For `CCOC(=O)CCn1cc(-c2cc(C)cc(Nc3cc(C4CC4)ccn3)n2)cn1` [Example 1.17, ethyl 3-(4-{6-[(4-cyclopropylpyridin-2-yl)amino]-4-methylpyridin-2-yl}-1H-pyrazol-1-yl)propanoate], the IC50 is ≤ 100 nM. For the compound `Cc1ccnc(Nc2cccc(-c3cnn(CCC(=O)O)c3)n2)c1` [Example 1.18, 3-(4-{6-[(4-methylpyridin-2-yl)amino]pyridin-2-yl}-1H-pyrazol-1-yl)propanoic acid], the IC50 lay in the range of 100 to 1000 nM. Regarding `O=C(O)CCn1cc(-c2cccc(Nc3cc(C(F)(F)F)ccn3)n2)cn1` [Example 1.19, 3-[4-(6-{[4-(trifluoromethyl)pyridin-2-yl]amino}pyridin-2-yl)-1H-pyrazol-1-yl]propanoic acid], the IC50 was ≤ 100 nM. On the same count and under the same terms, to `Cc1ccnc(Nc2cc(C)cc(-c3cnn(CCC(=O)O)c3)n2)c1` [Example 1.20, 3-(4-{4-methyl-6-[(4-methylpyridin-2-yl)amino]pyridin-2-yl}-1H-pyrazol-1-yl)propanoic acid] belongs 100 to 1000 nM; to `Cc1cc(Nc2cc(C(F)(F)F)ccn2)nc(-c2cnn(CCC(=O)O)c2)c1` [Example 1.21, 3-[4-(4-methyl-6-{[4-(trifluoromethyl)pyridin-2-yl]amino]pyridin-2-yl)-1H-pyrazol-1-yl)propanoic acid], ≤ 100 nM; to `Cc1cc(Nc2cc(C3CC3)ccn2)nc(-c2cnn(CCC(=O)O)c2)c1` [Example 1.22, 3-(4-{6-[(4-cyclopropylpyridin-2-yl)amino]-4-methylpyridin-2-yl}-1H-pyrazol-1-yl)propanoic acid], ≤ 100 nM. On to `CCOC(=O)CCn1cc(-c2cccc(Nc3cc(C)ccn3)n2)cn1` [Example 1.23], for which the IC50 lay within 100 to 1000 nM.

On to `CCOC(=O)CCn1cc(-c2cccc(Nc3cc(C(F)(F)F)ccn3)n2)cn1` [Example 1.24, ethyl 3-[4-(6-{[4-(trifluoromethyl)pyridin-2-yl]amino}pyridin-2-yl)-1H-pyrazol-1-yl]propanoate], for which the IC50 lay in the range of 100 to 1000 nM. For `CCOC(=O)CCn1cc(-c2cc(C)cc(Nc3cc(C)c(Cl)cn3)n2)cn1` [Example 1.25, ethyl 3-(4-{6-[(5-chloro-4-methylpyridin-2-yl)amino]-4-methylpyridin-2-yl}-1H-pyrazol-1-yl)propanoate], the IC50 fell in the range of 100 to 1000 nM.
